This experiment relates to T1, HpeCBA.
T1 construct: gene hpeB; hpeCBA co-expressed in Rhodococcus jostii RHA1; untagged complex, ammonium sulfate and anion exchange; with Phosphophenylethanone carboxylase, biotin carboxylase; Phosphophenylethanone carboxylase, biotin carboxyl carrier protein
In words: coupled spectrophotometric assay (pyruvate kinase / lactate dehydrogenase, NADH oxidation). The format is biochemical, Rhodococcus rhodochrous. The conditions noted are these: 20 mM MOPS (I = 0.1 M), pH 7.5, 25 °C; ATP, Mg2+, HCO3-. The text has this: coupled spectrophotometric assay (pyruvate kinase / lactate dehydrogenase, NADH oxidation) on HpeCBA

For two compounds, Km results are on record in article PMC9618137, “Bacterial catabolism of acetovanillone, a lignin-derived compound” (Proceedings of the National Academy of Sciences of the …, 2022).

The structures appear in SMILES notation.

Usually Km stands for the substrate concentration at which the rate is half of its maximum. As for `CC(=O)c1ccc(OP(=O)(O)O)cc1` [PAP], the Km came to 69 µM.
Take `COc1cc(C(C)=O)ccc1OP(=O)(O)O` [PAV]: the Km stood at 560 µM.
